Biological target: Intestinal-type alkaline phosphatase (Homo sapiens, UniProt P09923)
Assay: activation of human intestinal alkaline phosphatase – biochemical, dose response (AID 488873)

Intestinal-type alkaline phosphatase, sequence (P09923 whole entry): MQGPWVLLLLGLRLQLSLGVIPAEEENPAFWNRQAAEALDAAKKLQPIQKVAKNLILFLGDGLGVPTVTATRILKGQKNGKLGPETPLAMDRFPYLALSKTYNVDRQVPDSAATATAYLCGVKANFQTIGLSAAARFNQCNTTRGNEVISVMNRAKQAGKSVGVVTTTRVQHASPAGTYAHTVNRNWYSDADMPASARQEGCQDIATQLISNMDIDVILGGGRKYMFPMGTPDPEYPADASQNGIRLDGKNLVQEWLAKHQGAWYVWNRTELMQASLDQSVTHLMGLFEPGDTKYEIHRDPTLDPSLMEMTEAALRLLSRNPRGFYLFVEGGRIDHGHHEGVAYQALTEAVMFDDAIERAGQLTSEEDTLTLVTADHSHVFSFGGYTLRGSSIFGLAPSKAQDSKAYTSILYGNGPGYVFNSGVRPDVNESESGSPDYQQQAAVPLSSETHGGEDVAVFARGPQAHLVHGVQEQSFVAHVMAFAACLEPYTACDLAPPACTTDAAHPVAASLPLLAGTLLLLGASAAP

EC50 | Structure (SMILES)
66.2 µM | O=C(NN=CC1=CC(=O)C(=O)CC1)NN=CC1=CC(=O)C(=O)CC1 [1,3-bis[[(Z)-(3-hydroxy-4-oxocyclohexa-2,5-dien-1-ylidene)methyl]amino]urea]
> 100 µM | O=C1CC(=O)c2c(O)cc(O)c(O)c2C1=O [4,5,7,8-tetrahydroxy-1,2-naphthoquinone]
66.2 µM | Cc1cc(=O)[nH]c(N=NCc2ccc(O)c(O)c2)n1 [MLS001194906]

The remaining lines, values behind:

Structure (SMILES) | EC50
CN(CCO)c1ccc(CN=Nc2ccc([N+](=O)[O-])cc2S(=O)(=O)Nc2ccccc2C(=O)O)cc1 | 26.6 µM
Oc1ccc(CN=Nc2cc(N3CCCC3)nc(N3CCCC3)n2)cc1O [(4Z)-4-[[2-(2,6-dipyrrolidin-1-ylpyrimidin-4-yl)hydrazinyl]methylidene]-2-hydroxycyclohexa-2,5-dien-1-one] | > 100 µM
C#CCOCCOCCOCCNc1nc(N2CCN(C(=O)CCCCCCCCCCNC(=O)[C@@H](CCC(=O)O)n3cc(CCCCCN)nn3)CC2)nc(N2CCN(C(=O)CCCCCCCCCCNC(=O)[C@H]([C@@H](C)CC)n3cc(CCCCCN)nn3)CC2)n1 [KI-KE] | > 100 µM
